These results are taken from patent US20230159510A1, “NOVEL PRMT5 INHIBITORS” (AMGEN INC., priority 2020, published 2023).

Where two headings read alike, the source gives them in different places.

Assay [1] has as its system HCT116 WT cells. Put plainly: HCT116 proliferation assay, WT cells (CellTiter-Glo, 6 days). The assay is classed as cell-based. The settings on record: read-out: Prolif_HCT116-WT IC50. In outline:
(§1)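 Seed cells in RPMI 1640 supplemented with 10% FBS and incubate overnight at 37° C under 5% CO2. Treat with serially diluted compound (threefold steps, 8 or 9 points, highest 1 or 10 µM) or DMSO alone, then quantify viability by luminescence.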

For assay [2], the system named is HCT116 MTAP null cells. Description: HCT116 proliferation assay, MTAP null cells (CellTiter-Glo, 6 days). The format is cell-based. The settings on record: read-out: Protif_ HCT116-MTAP null IC50. In outline:
as §1

For `Cc1cc2cc(C(=O)N(Cc3ccc(C(F)(F)F)cn3)[C@H](C)c3ncccn3)ccc2nc1N` [Example 503, 2-amino-3-methyl-N-((1R)-1-(2-pyrimidinyl)ethyl)-N-((5-(trifluoromethyl)-2-pyridinyl)methyl)-6-quinolinecarboxamide], the IC50 in assay [1] (Homo sapiens, HCT-116, 144 h) was determined as 680 nM; in assay [2] (144 h), 26 nM.

For the compound `CO[C@H]1Cc2ccccc2[C@@H]1N(Cc1ccc(C(F)(F)F)cn1)C(=O)c1ccc2nc(N)c(C)cc2c1` [Example 752, 2-amino-N-((1S,2S)-2-methoxy-2,3-dihydro-1H-inden-1-yl)-3-methyl-N-((5-(trifluoromethyl)-2-pyridinyl)methyl)-6-quinolinecarboxamide], the IC50 was 1740 nM in assay [1] (Homo sapiens, HCT-116, 144 h) and 119 nM in assay [2] (HCT116-MTAP null, 144 h).

Turning to “2-amino-3-methyl-N-(4-(3-oxetanyl)benzyl)-N-((1R)-1-(2-pyrimidinyl)ethyl)-6-quinolinecarboxamide, 2-amino-3-methyl-N-(4-(3-oxetanyl)benzyl)-N-((1S)-1-(2-pyrimidinyl)ethyl)-6-quinolinecarboxamide [Example 802]”, the figures for the concentration for half-maximal inhibition (IC50) in assay [1] and in assay [2] were 9300 nM and 393 nM, respectively.

In the case of `COc1ccc(CN(C(=O)c2ccc3nc(N)c(Br)cc3c2)[C@H](C)c2ncccc2F)nn1` [Example 736, 2-amino-3-bromo-N-((1R)-1-(3-fluoro-2-pyridinyl)ethyl)-N-((6-methoxy-3-pyridazinyl)methyl)-6-quinolinecarboxamide], the concentration for half-maximal inhibition (IC50) in assay [1] (Homo sapiens, HCT-116, 144 h) worked out at 6960 nM; in assay [2] (HCT116-MTAP null, 144 h), 151 nM.

Regarding `C[C@H](c1ncccn1)N(Cc1ccc(Cl)nn1)C(=O)c1ccc2nc(N)c(Br)cc2c1` [Example 773, (R)-2-amino-3-bromo-N-((6-chloropyridazin-3-yl)methyl)-N-(1-(pyrimidin-2-yl)ethyl)quinoline-6-carboxamide], the IC50 is above 10000 nM in assay [1] (Homo sapiens, HCT-116, 144 h) and 304 nM in assay [2] (HCT116-MTAP null, 144 h).

As to `C[C@H](c1ncccn1)N(Cc1ccc(C2CC2)nn1)C(=O)c1ccc2nc(N)c(Br)cc2c1` [Example 762, (R)-2-amino-3-bromo-N-((6-cyclopropylpyridazin-3-yl)methyl)-N-(1-(pyrimidin-2-yl)ethyl)quinoline-6-carboxamide], the IC50 in assay [1] (Homo sapiens, HCT-116, 144 h) worked out at 8800 nM; in assay [2] (HCT116-MTAP null, 144 h), 180 nM.

For `Cc1cc2cc(C(=O)N(Cc3ccc(OC(F)F)nn3)C(C)c3ncccn3)ccc2nc1N` (centres unmarked) [Example 742, 2-amino-N-((6-(difluoromethoxy)pyridazin-3-yl)methyl)-3-methyl-N-(1-(pyrimidin-2-yl)ethyl)quinoline-6-carboxamide], the IC50 in assay [1] (Homo sapiens, HCT-116, 144 h) is 1170 nM; in assay [2] (HCT116-MTAP null, 144 h) it was 40 nM.

As to `Cc1cc2cc(C(=O)N(Cc3ccc(C(F)(F)F)cn3)CC(C)C)c(O)cc2nc1N` [Example 835, 2-Amino-7-hydroxy-3-methyl-N-(2-methylpropyl)-N-((5-(trifluoromethyl)-2-pyridinyl)methyl)-6-quinolinecarboxamide], the IC50 was 8010 nM in assay [1] (Homo sapiens, HCT-116, 144 h) and 448 nM in assay [2] (HCT116-MTAP null, 144 h).

On to `Cc1cc2cc(C(=O)N(CCOC(F)(F)F)Cc3ccc(C(F)(F)F)cn3)ccc2nc1N` [Example 734, 2-amino-3-methyl-N-(2-(trifluoromethoxy)ethyl)-N-((5-(trifluoromethyl)-2-pyridinyl)methyl)-6-quinolinecarboxamide], for which the IC50 was above 10000 nM in assay [1] (Homo sapiens, HCT-116, 144 h) and 994 nM in assay [2] (HCT116-MTAP null, 144 h).

Turning to `COC[C@@H](C1CC1)N(Cc1ccc(C(F)(F)F)cn1)C(=O)c1ccc2nc(N)c(C)cc2c1` (single isomer, unassigned) [Example 809], the IC50 came to 362 nM in assay [1] (Homo sapiens, HCT-116, 144 h) and 15 nM in assay [2] (HCT116-MTAP null, 144 h).

In the case of `N#Cc1ccc(CN(C(=O)c2ccc3nc(N)c(Br)cc3c2)C2CCCC2C#N)nc1` (centres unmarked) [Example 827, 2-amino-3-bromo-N-(2-cyanocyclopentyl)-N-((5-cyanopyridin-2-yl)methyl)quinoline-6-carboxamide], the IC50 in assay [1] (Homo sapiens, HCT-116, 144 h) was above 1000 nM; in assay [2] (HCT116-MTAP null, 144 h), 880 nM.

Consider `Cc1cc2cc(C(=O)N(Cc3ccc(N4CCC(C(N)=O)CC4)cc3)CC(C)C3CC3)ccc2nc1N` (centres unmarked) [Example 571, 2-amino-N-(4-(4-carbamoylpiperidin-1-yl)benzyl)-N-(2-cyclopropylpropyl)-3-methylquinoline-6-carboxamide], for which the IC50 in assay [1] (Homo sapiens, HCT-116, 144 h) is above 1000 nM; in assay [2] (HCT116-MTAP null, 144 h), 202 nM.

In the case of `Cc1cc2cc(C(=O)N(Cc3ccc(Cl)nn3)[C@H](C)c3ncccn3)ccc2nc1N` (single isomer, unassigned) [Example 819], the IC50 in assay [1] (Homo sapiens, HCT-116, 144 h) is 543 nM; in assay [2] (HCT116-MTAP null, 144 h), 29 nM.

As for `[2H]C([2H])([2H])c1cc2cc(C(=O)N(Cc3ccc(C(F)(F)F)cn3)[C@H](C)c3ncccn3)ccc2nc1N` [Example 399, (R)-2-amino-3-(methyl-d3)-N-(1-(pyrimidin-2-yl)ethyl)-N-((5-(trifluoromethyl)pyridin-2-yl)methyl)quinoline-6-carboxamide], the IC50 was found to be 872 nM in assay [1] (Homo sapiens, HCT-116, 144 h) and 36 nM in assay [2] (144 h).

As for `Cc1cc2cc(C(=O)N(Cc3ccc(C(F)(F)F)cn3)Cc3ncccc3F)c(Cl)cc2nc1N` [Example 804, 2-amino-7-chloro-N-((3-fluoro-2-pyridinyl)methyl)-3-methyl-N-((5-(trifluoromethyl)-2-pyridinyl)methyl)-6-quinolinecarboxamide], the IC50 in assay [1] (Homo sapiens, HCT-116, 144 h) came out at 5770 nM; in assay [2] (HCT116-MTAP null, 144 h), 226 nM.

As for `COc1ccc(CN(C(=O)c2ccc3nc(N)c(C)cc3c2)C(C)c2ncn(C)n2)nn1` (centres unmarked) [Example 756, 2-amino-N-((6-methoxypyridazin-3-yl)methyl)-3-methyl-N-(1-(1-methyl-1H-1,2,4-triazol-3-yl)ethyl)quinoline-6-carboxamide], the half-inhibitory concentration (IC50) came out at 5950 nM in assay [1] (Homo sapiens, HCT-116, 144 h) and 228 nM in assay [2] (HCT116-MTAP null, 144 h).

Take `CC[C@H](c1ncccn1)N(Cc1ccc(C(F)(F)F)cn1)C(=O)c1cnc2nc(N)c(Br)cc2c1` (single isomer, unassigned) [Example 443]: the IC50 in assay [1] (Homo sapiens, HCT-116, 144 h) is 2080 nM; in assay [2] (HCT116-MTAP null, 144 h) it was 96 nM.

Take “2-amino-N-((1S,2S)-2-methoxy-2,3-dihydro-1H-inden-1-yl)-3-methyl-N-((5-(trifluoromethyl)-2-pyridinyl)methyl)-6-quinolinecarboxamide [Example 753]”: the values for the IC50 in assay [1] and in assay [2] were above 10000 nM and 408 nM, respectively.

In the case of `Cc1cc2cc(C(=O)N(Cc3ccc(C(F)(F)F)cn3)CC(O)C(F)(F)F)ccc2nc1N` (centres unmarked) [Example 592, 2-amino-3-methyl-N-(3,3,3-trifluoro-2-hydroxypropyl)-N-((5-(trifluoromethyl)pyridin-2-yl)methyl)quinoline-6-carboxamide], the IC50 in assay [1] (Homo sapiens, HCT-116, 144 h) was above 1000 nM; in assay [2] (HCT116-MTAP null, 144 h), 407 nM.

On to `Cc1cc2cc(C(=O)N(Cc3ccc(C(F)(F)F)cn3)C(C)c3ncon3)ccc2nc1N` (centres unmarked) [Example 795, N-(1-(1,2,4-oxadiazol-3-yl)ethyl)-2-amino-3-methyl-N-((5-(trifluoromethyl)pyridin-2-yl)methyl)quinoline-6-carboxamide], for which the IC50 in assay [1] (Homo sapiens, HCT-116, 144 h) is 1390 nM; in assay [2] (HCT116-MTAP null, 144 h), 56 nM.

For `Cc1cc2cc(C(=O)N(Cc3ccc(C(F)(F)F)cn3)Cc3cc(Cl)cn3C)ccc2nc1N` [Example 582, 2-amino-N-((4-chloro-1-methyl-1H-pyrrol-2-yl)methyl)-3-methyl-N-((5-(trifluoromethyl)pyridin-2-yl)methyl)quinoline-6-carboxamide], the IC50 in assay [1] (Homo sapiens, HCT-116, 144 h) is above 1000 nM; in assay [2] (HCT116-MTAP null, 144 h), 490 nM.

Turning to `Cc1cc2cc(C(=O)N(CCc3ccon3)Cc3ccc(C(F)(F)F)cn3)ccc2nc1N` [Example 585, 2-amino-N-(2-(isoxazol-3-yl)ethyl)-3-methyl-N-((5-(trifluoromethyl)pyridin-2-yl)methyl)quinoline-6-carboxamide], the IC50 is 11000 nM in assay [1] (Homo sapiens, HCT-116, 144 h) and 580 nM in assay [2] (HCT116-MTAP null, 144 h).

With `C[C@H](c1ncccn1)N(Cc1ccc(Cl)cn1)C(=O)c1cnc2nc(N)c(I)cc2c1` [Example 768, (R)-7-amino-N-((5-chloropyridin-2-yl)methyl)-6-iodo-N-(1-(pyrimidin-2-yl)ethyl)-1,8-naphthyridine-3-carboxamide], the IC50 in assay [1] (Homo sapiens, HCT-116, 144 h) was 3960 nM; in assay [2] (HCT116-MTAP null, 144 h) it was 116 nM.

With `Cc1cc2cc(C(=O)N(Cc3ncccc3F)[C@H]3COc4cc(C(F)(F)F)ccc43)ccc2nc1N` (single isomer, unassigned) [Example 524], the IC50 in assay [1] (Homo sapiens, HCT-116, 144 h) came to 2350 nM; in assay [2] (HCT116-MTAP null, 144 h), 135 nM.

As to `Cc1cc2cc(C(=O)N(Cc3ccc(N4CCCCC4)cc3)Cc3ccnc4[nH]ccc34)ccc2nc1N` [Example 563, 2-amino-3-methyl-N-[[4-(1-piperidyl)phenyl]methyl]-N-(1H-pyrrolo [2,3-b]pyridin-4-ylmethyl)quinoline-6-carboxamide], the IC50 in assay [1] (Homo sapiens, HCT-116, 144 h) is above 1000 nM; in assay [2] (HCT116-MTAP null, 144 h) it was 165 nM.

`N#CC[C@@H](C1CC1)N(Cc1ccc(C#N)cn1)C(=O)c1ccc2nc(N)c(I)cc2c1` [Example 837, (S)-2-amino-N-(2-cyano-1-cyclopropylethyl)-N-((5-cyanopyridin-2-yl)methyl)-3-iodoquinoline-6-carboxamide]: the IC50 in assay [1] (Homo sapiens, HCT-116, 144 h) was 2170 nM; in assay [2] (HCT116-MTAP null, 144 h) it was 42 nM.

Turning to `Cc1c(Br)c(N)nc2ncc(C(=O)N(Cc3ccc(C#N)cn3)[C@H](C)c3ncccn3)cc12` [Example 744, (R)-7-amino-6-bromo-N-((5-cyanopyridin-2-yl)methyl)-5-methyl-N-(1-(pyrimidin-2-y 1)ethy 1)-1 ,8-naphthyridine-3-carboxamide], the IC50 in assay [1] (Homo sapiens, HCT-116, 144 h) was determined as 4120 nM; in assay [2] (HCT116-MTAP null, 144 h) it was 188 nM.

As to `Cc1cc2cc(C(=O)N(Cc3cc4ccccc4cn3)C(C)c3ncccn3)ccc2nc1N` (centres unmarked) [Example 792, 2-amino-N-(isoquinolin-3-ylmethyl)-3-methyl-N-(1-(pyrimidin-2-yl)ethyl)quinoline-6-carboxamide], the IC50 worked out at 3840 nM in assay [1] (Homo sapiens, HCT-116, 144 h) and 119 nM in assay [2] (HCT116-MTAP null, 144 h).
